Measurements published in patent US20210255193A1, “LYSINE REACTIVE PROBES AND USES THEREOF” (The Scripps Research Institute, priority 2017, published 2021).
Entries after “also recorded” stand apart in the source; their conditions may differ.

Target: T1, SIN3A Paired amphipathic helix protein Sin3a (Homo sapiens, UniProt Q96ST3)
T1 construct: isoTOP-ABPP experiments performed in cell lysates (in vitro); endogenous in cells; host or cells: soluble proteome of human cancer cell lines (MDA-MB-231; Ramos and Jurkat also prepared)
T1 sequence (Q96ST3 1-1273): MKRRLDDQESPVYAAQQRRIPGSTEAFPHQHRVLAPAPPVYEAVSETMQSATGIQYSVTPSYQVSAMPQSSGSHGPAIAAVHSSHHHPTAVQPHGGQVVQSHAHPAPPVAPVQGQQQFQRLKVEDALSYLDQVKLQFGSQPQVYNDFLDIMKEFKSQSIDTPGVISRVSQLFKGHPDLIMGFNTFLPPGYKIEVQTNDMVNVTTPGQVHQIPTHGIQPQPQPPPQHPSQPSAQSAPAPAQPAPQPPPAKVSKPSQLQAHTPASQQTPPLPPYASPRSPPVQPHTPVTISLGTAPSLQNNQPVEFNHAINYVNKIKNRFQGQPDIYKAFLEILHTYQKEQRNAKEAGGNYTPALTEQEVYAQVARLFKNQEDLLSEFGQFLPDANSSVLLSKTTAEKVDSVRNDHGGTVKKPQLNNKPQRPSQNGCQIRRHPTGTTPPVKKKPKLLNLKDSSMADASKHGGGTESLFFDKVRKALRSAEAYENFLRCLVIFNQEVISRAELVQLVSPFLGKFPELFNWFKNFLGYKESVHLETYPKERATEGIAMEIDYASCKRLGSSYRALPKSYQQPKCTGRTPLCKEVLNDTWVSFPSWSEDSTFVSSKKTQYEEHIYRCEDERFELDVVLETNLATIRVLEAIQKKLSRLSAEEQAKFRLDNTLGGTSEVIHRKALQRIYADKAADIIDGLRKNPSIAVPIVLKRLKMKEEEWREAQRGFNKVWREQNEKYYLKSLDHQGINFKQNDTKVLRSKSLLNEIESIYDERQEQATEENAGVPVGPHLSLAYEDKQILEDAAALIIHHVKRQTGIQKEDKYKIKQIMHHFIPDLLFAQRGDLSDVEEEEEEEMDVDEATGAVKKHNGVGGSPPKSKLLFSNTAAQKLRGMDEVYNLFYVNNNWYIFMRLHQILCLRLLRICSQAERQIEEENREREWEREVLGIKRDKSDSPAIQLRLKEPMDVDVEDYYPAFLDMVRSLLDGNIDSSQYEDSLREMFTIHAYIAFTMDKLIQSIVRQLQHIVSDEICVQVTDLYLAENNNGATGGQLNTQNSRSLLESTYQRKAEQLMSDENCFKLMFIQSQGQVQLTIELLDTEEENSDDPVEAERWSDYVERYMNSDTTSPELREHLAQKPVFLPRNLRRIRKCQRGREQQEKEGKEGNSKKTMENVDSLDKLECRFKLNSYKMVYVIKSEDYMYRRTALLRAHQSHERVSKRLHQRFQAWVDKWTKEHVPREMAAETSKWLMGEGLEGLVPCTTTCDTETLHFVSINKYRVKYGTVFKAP
Assay: competitive isoTOP-ABPP
Type: binding
Settings: for R value (DMSO/fragment) for probe 1 labeling: Q96ST3_K155; for R value (DMSO/fragment) for probe 1 labeling / isoTOP-ABPP reactivity ratio at lysine Q96ST3_K155 / isoTOP-ABPP ratio (R) at liganded lysine Q96ST3_K155: 50 uM, in vitro; for R value (DMSO/fragment) for probe 1 labeling / isoTOP-ABPP reactivity ratio at lysine Q96ST3_K155: 231 sol; for isoTOP-ABPP ratio (R) at liganded lysine Q96ST3_K155: sol, 231; for isoTOP-ABPP ratio, lysine Q96ST3_K155: possible other lysine Q96ST3_K152
Procedure, shortened: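 Competition format: fragment (50 μM activated ester, 100 μM guanidinylating agent) versus vehicle in lysate, then lysine probe STP-alkyne at 0.1 mM for 1 h. Quantitation by light/heavy TEV-tag MS1 peak areas, reported as R.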

Compound	isoTOP-ABPP reactivity ratio at lysine Q96ST3_K155	isoTOP-ABPP ratio (R) at liganded lysine Q96ST3_K155	also measured
O=C(CCc1cn(-c2ccccc2)nc1-c1ccccc1)Oc1c(F)c(F)c(F)c(F)c1F [fragment 19, Pentafluorophenyl 3-(1,3-diphenyl-1H-pyrazol-4-yl)propanoate]	–	–	R value (DMSO/fragment) for probe 1 labeling: 1.6
O=C(Oc1c(F)c(F)c(F)c(F)c1F)C(c1ccccc1)c1ccccc1 [fragment 20, Pentafluorophenyl 2,2-diphenylacetate]	–	–	R value (DMSO/fragment) for probe 1 labeling: 1.2
O=C(Oc1c(F)c(F)c(F)c(F)c1F)c1cc(C(F)(F)F)cc(C(F)(F)F)c1 [fragment 21, Pentafluorophenyl 3,5-bis(trifluoromethyl)benzoate]	–	–	R value (DMSO/fragment) for probe 1 labeling: 20.0; engagement of K155, competition of probe 1 labeling (SIN3A K155, 21 50 μM): engages K155 in SIN3A; also recorded: fully competes probe 1 labeling of K155
Cn1cc(CC(=O)Oc2c(F)c(F)c(F)c(F)c2F)c2ccccc21 [fragment 22, Pentafluorophenyl 2-(1-methyl-1H-indol-3-yl)acetate]	–	–	R value (DMSO/fragment) for probe 1 labeling: 3.9
COc1cc(CCC(=O)Oc2c(F)c(F)c(F)c(F)c2F)cc(OC)c1OC [fragment 23, Pentafluorophenyl 3-(3,4,5-trimethoxyphenyl)propanoate]	–	–	R value (DMSO/fragment) for probe 1 labeling: 4.1
O=C(Oc1c(F)c(F)c(F)c(F)c1F)C1CCN(C(=O)OCc2ccccc2)CC1 [fragment 24, 1-Benzyl 4-(pentafluorophenyl) piperidine-1,4-dicarboxylate]	1.1	–	–
O=C(Oc1c(F)c(F)c(F)c(F)c1F)c1ccc2ccccc2n1 [fragment 25, Pentafluorophenyl quinoline-2-carboxylate]	11.1	–	–
O=C(CCc1coc2cc(F)ccc2c1=O)Oc1c(F)c(F)c(F)c(F)c1F [fragment 26, Pentafluorophenyl 3-(7-fluoro-4-oxo-4H-chromen-3-yl)propanoate]	1.7	–	–
O=C(CN1C(=O)c2ccccc2C1=O)Oc1c(F)c(F)c(F)c(F)c1F [fragment 27, Pentafluorophenyl 2-(1,3-dioxoisoindolin-2-yl)acetate]	11.7	–	–
CCn1cc(C(=O)Oc2c(F)c(F)c(F)c(F)c2F)c(=O)c2ccc(C)nc21 [fragment 28, Pentafluorophenyl 1-ethyl-7-methyl-4-oxo-1,4-dihydro-1,8-naphthyridine-3-carboxylate]	4.9	–	–
O=C(CCc1cn(-c2ccccc2)nc1-c1ccccc1)Oc1ccc([N+](=O)[O-])cc1[N+](=O)[O-] [fragment 29, 2,4-Dinitrophenyl 3-(1,3-diphenyl-1H-pyrazol-4-yl)propanoate]	1.5	–	–
O=C(Oc1ccc([N+](=O)[O-])cc1[N+](=O)[O-])C(c1ccccc1)c1ccccc1 [fragment 30, 2,4-Dinitrophenyl 2,2-diphenylacetate]	20.0	–	–
O=C(Oc1ccc([N+](=O)[O-])cc1[N+](=O)[O-])c1cc(C(F)(F)F)cc(C(F)(F)F)c1 [fragment 31, 2,4-Dinitrophenyl 3,5-bis(trifluoromethyl)benzoate]	18.6	–	–
Cn1cc(CC(=O)Oc2ccc([N+](=O)[O-])cc2[N+](=O)[O-])c2ccccc21 [fragment 32, 2,4-Dinitrophenyl 2-(1-methyl-1H-indol-3-yl)acetate]	17.5	–	–
COc1cc(CCC(=O)Oc2ccc([N+](=O)[O-])cc2[N+](=O)[O-])cc(OC)c1OC [fragment 33, 2,4-Dinitrophenyl 3-(3,4,5-trimethoxyphenyl)propanoate]	2.0	–	–
O=C(Oc1ccc([N+](=O)[O-])cc1[N+](=O)[O-])C1CCN(C(=O)OCc2ccccc2)CC1 [fragment 34, 1-Benzyl 4-(2,4-dinitrophenyl) piperidine-1,4-dicarboxylate]	–	0.8	–

Compound	isoTOP-ABPP reactivity ratio at lysine Q96ST3_K155	isoTOP-ABPP ratio (R) at liganded lysine Q96ST3_K155	also measured
O=C(Oc1ccc([N+](=O)[O-])cc1[N+](=O)[O-])c1ccc2ccccc2n1 [fragment 35, 2,4-Dinitrophenyl quinoline-2-carboxylate]	–	1.6	–
O=C(CCc1coc2cc(F)ccc2c1=O)Oc1ccc([N+](=O)[O-])cc1[N+](=O)[O-] [fragment 36, 2,4-Dinitrophenyl 3-(7-fluoro-4-oxo-4H-chromen-3-yl)propanoate]	–	1.4	–
O=C(Oc1ccc([N+](=O)[O-])cc1[N+](=O)[O-])c1ccc(-c2ccccc2)cc1 [fragment 37, 2,4-Dinitrophenyl [1,1′-biphenyl]-4-carboxylate]	–	1.1	–
O=C(CC12CC3CC(CC(C3)C1)C2)Oc1ccc([N+](=O)[O-])cc1[N+](=O)[O-] [fragment 38, 2,4-Dinitrophenyl 2-(adamantan-1-yl)acetate]	–	1.2	–
O=C(Oc1ccc([N+](=O)[O-])cc1[N+](=O)[O-])c1ccc(Oc2ccccc2)cc1 [fragment 39, 2,4-Dinitrophenyl 4-phenoxybenzoate]	–	1.0	–
O=C(Oc1ccc([N+](=O)[O-])cc1[N+](=O)[O-])c1ccccc1Nc1cccc(C(F)(F)F)c1 [fragment 40, 2,4-Dinitrophenyl 2-((3-(trifluoromethyl)phenyl)amino)benzoate]	–	1.1	–
CC(C)(C)OC(=O)NCCCC(=O)Oc1ccc([N+](=O)[O-])cc1[N+](=O)[O-] [fragment 41, 2,4-Dinitrophenyl 4-((tert-butoxycarbonyl)amino)butanoate]	–	1.3	–
O=C(Oc1ccc([N+](=O)[O-])cc1[N+](=O)[O-])C(c1ccccc1)(c1ccccc1)c1ccccc1 [fragment 42, 2,4-Dinitrophenyl 2,2,2-triphenylacetate]	–	0.9	–
CC(=O)Oc1ccc([N+](=O)[O-])cc1[N+](=O)[O-] [fragment 43, 2,4-Dinitrophenyl acetate]	–	1.2	–
N#Cc1ccc(C(=O)Oc2ccc([N+](=O)[O-])cc2[N+](=O)[O-])cc1 [fragment 44, 2,4-Dinitrophenyl 4-cyanobenzoate]	–	–	isoTOP-ABPP ratio, lysine Q96ST3_K155 (50 uM_231_sol_in vitro): 1.5
O=C(CCc1ccc2c(c1)OCO2)Oc1ccc([N+](=O)[O-])cc1[N+](=O)[O-] [fragment 45, 2,4-Dinitrophenyl 3-(benzo[d][1,3]dioxol-5-yl)propanoate]	–	–	isoTOP-ABPP ratio, lysine Q96ST3_K155 (50 uM_231_sol_in vitro): 1.5
O=C(ON1C(=O)CCC1=O)c1cc(C(F)(F)F)cc(C(F)(F)F)c1 [fragment 46, 3,5-Bis(trifluoromethyl)benzoic acid NHS ester]	–	–	isoTOP-ABPP ratio, lysine Q96ST3_K155 (50 uM_231_sol_in vitro): 4.4
O=C(Oc1c(F)c(F)c(C(F)(F)F)c(F)c1F)c1cc(C(F)(F)F)cc(C(F)(F)F)c1 [fragment 47, 2,3,5,6-Tetrafluoro-4-(trifluoromethyl)phenyl 3,5-bis(trifluoromethyl)benzoate]	–	–	isoTOP-ABPP ratio, lysine Q96ST3_K155 (50 uM_231_sol_in vitro): 1.8
O=C(Oc1c(F)c(F)cc(F)c1F)c1cc(C(F)(F)F)cc(C(F)(F)F)c1 [fragment 48, 2,3,5,6-Tetrafluorophenyl 3,5-bis(trifluoromethyl)benzoate]	–	–	isoTOP-ABPP ratio, lysine Q96ST3_K155 (50 uM_231_sol_in vitro): 20.0
CC(C)(C)OC(=O)N=C(NC(=O)OC(C)(C)C)n1cccn1 [fragment 50, reference compound]	–	–	isoTOP-ABPP ratio, lysine Q96ST3_K155 (100 uM_231_sol_in vitro): 3.5
NC(=O)c1cc(C(F)(F)F)cc(C(F)(F)F)c1 [fragment 51, reference compound]	–	–	isoTOP-ABPP ratio, lysine Q96ST3_K155 (50 uM_231_sol_in vitro): 1.1
